Experimental data from ChEMBL document CHEMBL4831493 (Eur J Med Chem, 2021).
Calls of active or inactive are those of the source. No cut-off for these calls is given here.

What was measured:
[1] = Oral bioavailability in Sprague-Dawley rat at 10 mg/kg measured up to 24 hrs by LC-MS/MS analysis; assay type: ADME, organism-based; settings: in vivo
[2] = molecular target: Cyclin-dependent kinase 7 (Homo sapiens) (UniProt P50613); assay: Inhibition of CDK7 (unknown origin) at 0.3 uM
[3] = molecular target: T1, Acetylcholinesterase (Mus musculus) (UniProt P21836); settings: ICR, dose 10.0 mg/kg, time 1.5 hrs
T1 sequence (whole entry): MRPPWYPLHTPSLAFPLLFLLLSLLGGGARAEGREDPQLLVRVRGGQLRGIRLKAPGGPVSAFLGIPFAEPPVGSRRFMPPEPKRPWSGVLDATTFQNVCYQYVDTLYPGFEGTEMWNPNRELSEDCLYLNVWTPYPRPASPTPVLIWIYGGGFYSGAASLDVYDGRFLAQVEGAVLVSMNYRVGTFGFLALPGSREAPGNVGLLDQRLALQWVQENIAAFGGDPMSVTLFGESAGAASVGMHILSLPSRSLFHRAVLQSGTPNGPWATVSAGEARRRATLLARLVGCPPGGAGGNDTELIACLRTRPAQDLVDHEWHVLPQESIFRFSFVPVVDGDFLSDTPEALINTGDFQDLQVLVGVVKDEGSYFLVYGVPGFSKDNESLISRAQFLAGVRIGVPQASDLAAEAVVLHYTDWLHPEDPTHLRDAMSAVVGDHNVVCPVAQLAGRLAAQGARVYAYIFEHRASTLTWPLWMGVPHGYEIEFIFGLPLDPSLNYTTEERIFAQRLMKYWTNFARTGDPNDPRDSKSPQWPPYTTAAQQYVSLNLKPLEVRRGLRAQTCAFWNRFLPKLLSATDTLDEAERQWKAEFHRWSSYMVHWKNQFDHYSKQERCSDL

[4] = molecular target: Mitogen-activated protein kinase 11 (Homo sapiens) (UniProt Q15759); assay: Inhibition of p38beta (unknown origin) at 0.3 uM
[5] = molecular target: Mitogen-activated protein kinase 10 (Homo sapiens) (UniProt P53779); assay: Inhibition of JNK3 (unknown origin) at 0.3 uM
[6] = test system: Rattus norvegicus; assay: Neuroprotective activity against amyloid beta (1 to 42)-induced suppression of synaptophysin in Sprague-Dawley rat at 5 mg/kg/day, po measured after 5 days by immunohistochemistry assay; assay type: functional, organism-based; settings: time 5.0 day
[7] = Toxicity in amyloid beta (1 to 42)-induced mouse model of Alzheimer's disease assessed as changes in body weight at 10 mg/kg/day, po measured after 9 days; assay type: organism-based; settings: in vivo, 216 h, time 9 day
[8] = Toxicity in amyloid beta (1 to 42)-induced mouse model of Alzheimer's disease assessed as morphological changes in liver tissue at 10 mg/kg/day, po measured after 9 days by HE staining method; assay type: organism-based; settings: in vivo, 216 h, time 9 day
[9] = molecular target: Glycogen synthase kinase-3 beta (Homo sapiens, UniProt P49841); assay: Inhibition of human recombinant N-terminal His-tagged GSK3beta expressed in Escherichia coli using RRRPASVPPSPSLS RHS(pS)HQRR as substrate incubated for 30 mins in presence of ATP by Kinase-Glo reagent based luminescence assay
[10] = Cmax in Sprague-Dawley rat at 1 mg/kg, iv measured up to 24 hrs by LC-MS/MS analysis; assay type: ADME, organism-based; set-up: route intravenous, dose 1 mg/kg, time <=24; settings: in vivo
[11] = Tmax in Sprague-Dawley rat at 10 mg/kg, po measured up to 24 hrs by LC-MS/MS analysis; assay type: ADME, organism-based; settings: in vivo
[12] = test system: Mus musculus; assay: Improvement in learning and spatial memory in amyloid beta (1 to 42)-induced mouse model of Alzheimer's disease at 10 mg/kg/day, po pretreated with amyloid beta42 for 3 days followed by treatment with compound and measured after 9 days measured by Y-maze test; assay type: functional, organism-based; settings: time 9.0 day
[13] = Drug level in ICR mouse brain at 10 mg/kg, po measured after 1 hr by LC/MS/MS analysis; assay type: ADME, organism-based; settings: read-out: Ct
[14] = Drug level in ICR mouse plasma at 10 mg/kg, po measured after 1.5 hrs by LC/MS/MS analysis; assay type: ADME, organism-based
[15] = molecular target: Cyclin-dependent kinase 4 (Homo sapiens) (UniProt P11802); assay: Inhibition of CDK4 (unknown origin) at 0.3 uM
[16] = molecular target: Cyclin-dependent kinase 9 (Homo sapiens) (UniProt P50750); assay: Inhibition of CDK9 (unknown origin) at 0.3 uM
[17] = test system: Mus musculus; assay: Cognitive enhancing effect in mouse model of scopolamine-induced amnesia assessed as escape latency time at 10 mg/kg/day, po measured by Morris water maze test (reference value: 17.9 sec); assay type: functional
[18] = molecular target: Cyclin-dependent kinase 1 (Homo sapiens) (UniProt P06493); assay: Inhibition of CDK1 (unknown origin) at 0.3 uM
[19] = molecular target: Dual specificity tyrosine-phosphorylation-regulated kinase 1B (Homo sapiens) (UniProt Q9Y463); assay: Inhibition of dyrk1 beta (unknown origin) at 0.3 uM
Chain of Dual specificity tyrosine-phosphorylation-regulated kinase 1B (Homo sapiens) (Q9Y463 whole entry, looked up): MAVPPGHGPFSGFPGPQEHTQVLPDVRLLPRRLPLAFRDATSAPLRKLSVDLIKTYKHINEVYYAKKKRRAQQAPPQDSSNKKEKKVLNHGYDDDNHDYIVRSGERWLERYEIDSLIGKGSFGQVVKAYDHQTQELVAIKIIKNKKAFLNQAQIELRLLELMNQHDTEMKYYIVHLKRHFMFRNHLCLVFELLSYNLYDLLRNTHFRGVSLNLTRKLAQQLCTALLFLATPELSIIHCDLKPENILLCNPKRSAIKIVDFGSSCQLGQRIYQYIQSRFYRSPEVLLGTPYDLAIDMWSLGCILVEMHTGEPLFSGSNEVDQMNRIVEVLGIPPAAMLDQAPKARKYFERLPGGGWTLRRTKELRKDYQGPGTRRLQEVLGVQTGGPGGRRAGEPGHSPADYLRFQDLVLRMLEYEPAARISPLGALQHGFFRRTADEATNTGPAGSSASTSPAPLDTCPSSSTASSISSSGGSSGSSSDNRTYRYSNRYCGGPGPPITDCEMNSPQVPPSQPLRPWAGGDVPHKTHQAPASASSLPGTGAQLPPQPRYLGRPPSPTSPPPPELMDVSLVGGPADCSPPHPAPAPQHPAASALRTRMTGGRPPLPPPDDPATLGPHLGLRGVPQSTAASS

Chain of Mitogen-activated protein kinase 10 (Homo sapiens) (P53779 whole entry): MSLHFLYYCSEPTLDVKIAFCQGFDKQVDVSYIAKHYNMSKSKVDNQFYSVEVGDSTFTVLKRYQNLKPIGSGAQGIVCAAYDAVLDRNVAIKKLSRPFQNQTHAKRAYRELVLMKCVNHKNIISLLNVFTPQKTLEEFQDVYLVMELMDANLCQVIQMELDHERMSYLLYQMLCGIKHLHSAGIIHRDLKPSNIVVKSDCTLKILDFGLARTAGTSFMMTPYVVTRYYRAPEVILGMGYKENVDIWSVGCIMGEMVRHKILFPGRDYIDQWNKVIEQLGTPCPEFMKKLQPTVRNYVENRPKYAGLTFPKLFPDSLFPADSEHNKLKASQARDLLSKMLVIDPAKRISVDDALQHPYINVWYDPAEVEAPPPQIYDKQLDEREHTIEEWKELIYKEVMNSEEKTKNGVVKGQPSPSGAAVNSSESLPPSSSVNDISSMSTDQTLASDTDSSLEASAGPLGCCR
Chain of Cyclin-dependent kinase 7 (Homo sapiens) (P50613 whole entry): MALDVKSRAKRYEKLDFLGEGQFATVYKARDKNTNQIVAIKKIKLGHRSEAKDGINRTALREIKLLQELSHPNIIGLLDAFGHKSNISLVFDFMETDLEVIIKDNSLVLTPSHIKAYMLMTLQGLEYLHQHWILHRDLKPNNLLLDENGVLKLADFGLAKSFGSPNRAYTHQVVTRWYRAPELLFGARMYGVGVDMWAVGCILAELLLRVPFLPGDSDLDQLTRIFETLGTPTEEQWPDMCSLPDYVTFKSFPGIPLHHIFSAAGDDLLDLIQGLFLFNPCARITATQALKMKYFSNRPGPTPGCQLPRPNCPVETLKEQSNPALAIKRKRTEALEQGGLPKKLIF
Chain of Cyclin-dependent kinase 4 (Homo sapiens) (P11802 whole entry): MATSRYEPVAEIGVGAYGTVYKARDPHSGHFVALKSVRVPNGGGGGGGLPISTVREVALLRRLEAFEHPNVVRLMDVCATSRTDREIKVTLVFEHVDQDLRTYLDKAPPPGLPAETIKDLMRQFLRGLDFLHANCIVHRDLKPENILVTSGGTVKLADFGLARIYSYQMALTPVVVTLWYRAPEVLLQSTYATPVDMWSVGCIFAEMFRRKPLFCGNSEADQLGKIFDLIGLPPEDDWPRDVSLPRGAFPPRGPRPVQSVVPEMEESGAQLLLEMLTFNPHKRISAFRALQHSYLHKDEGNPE
Chain of Mitogen-activated protein kinase 11 (Homo sapiens) (Q15759 whole entry): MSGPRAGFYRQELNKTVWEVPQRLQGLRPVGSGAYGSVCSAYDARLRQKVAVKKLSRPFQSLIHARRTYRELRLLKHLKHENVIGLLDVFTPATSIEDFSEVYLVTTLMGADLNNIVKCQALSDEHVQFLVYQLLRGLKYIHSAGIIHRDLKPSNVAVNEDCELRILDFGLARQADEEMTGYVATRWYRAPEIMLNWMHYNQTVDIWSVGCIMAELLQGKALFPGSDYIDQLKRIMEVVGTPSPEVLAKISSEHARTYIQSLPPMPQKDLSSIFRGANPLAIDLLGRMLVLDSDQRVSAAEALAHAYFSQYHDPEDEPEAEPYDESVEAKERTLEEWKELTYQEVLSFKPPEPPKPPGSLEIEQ
Chain of Cyclin-dependent kinase 9 (Homo sapiens) (P50750 whole entry): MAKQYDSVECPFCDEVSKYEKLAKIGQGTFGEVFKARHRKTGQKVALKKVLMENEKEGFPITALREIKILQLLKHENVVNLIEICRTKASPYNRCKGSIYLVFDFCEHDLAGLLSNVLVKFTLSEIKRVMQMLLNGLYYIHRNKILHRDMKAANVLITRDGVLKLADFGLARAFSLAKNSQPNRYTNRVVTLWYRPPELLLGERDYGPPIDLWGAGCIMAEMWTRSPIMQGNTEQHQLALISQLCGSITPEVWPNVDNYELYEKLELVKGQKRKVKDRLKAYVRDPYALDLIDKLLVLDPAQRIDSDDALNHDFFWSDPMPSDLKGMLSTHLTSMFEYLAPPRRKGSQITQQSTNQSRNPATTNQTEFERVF
Chain of Glycogen synthase kinase-3 beta (P49841 whole entry): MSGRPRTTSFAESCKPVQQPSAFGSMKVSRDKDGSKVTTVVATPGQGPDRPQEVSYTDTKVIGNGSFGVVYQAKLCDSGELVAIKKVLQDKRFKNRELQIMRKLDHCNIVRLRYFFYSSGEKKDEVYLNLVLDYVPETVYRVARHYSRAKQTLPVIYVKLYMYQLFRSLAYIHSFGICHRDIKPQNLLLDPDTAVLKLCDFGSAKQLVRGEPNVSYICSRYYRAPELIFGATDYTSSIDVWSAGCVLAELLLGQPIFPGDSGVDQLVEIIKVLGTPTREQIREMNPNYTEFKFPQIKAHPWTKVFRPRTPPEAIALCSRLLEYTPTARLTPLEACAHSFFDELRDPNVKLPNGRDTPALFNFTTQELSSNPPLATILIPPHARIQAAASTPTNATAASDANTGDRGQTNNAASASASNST
Chain of Cyclin-dependent kinase 1 (Homo sapiens) (P06493 whole entry, looked up): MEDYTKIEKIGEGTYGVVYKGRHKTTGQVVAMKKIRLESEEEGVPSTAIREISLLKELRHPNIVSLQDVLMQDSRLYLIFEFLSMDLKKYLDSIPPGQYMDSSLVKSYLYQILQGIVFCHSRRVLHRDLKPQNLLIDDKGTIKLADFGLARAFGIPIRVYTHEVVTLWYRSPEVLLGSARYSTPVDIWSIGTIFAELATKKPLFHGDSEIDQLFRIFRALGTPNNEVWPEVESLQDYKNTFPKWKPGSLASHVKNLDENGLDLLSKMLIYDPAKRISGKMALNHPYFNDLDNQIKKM

## O=C(Nc1cncc(OCC2CCN(Cc3ccc(F)cc3)CC2)c1)c1ccnc(NC(=O)C2CC2)c1
[1]
  bioavailability: 31%
[2]
  inhibition: inactive
[3]
  inhibition: 85.5%
[4]
  inhibition: inactive
[5]
  inhibition: inactive
[6]
  Activity: Active
[7]
  Activity: Non-Toxic
[8]
  Activity: Non-Toxic
[9]
  IC50: 31 nM
[10]
  Cmax: 200 ng/mL
[11]
  Tmax: 1.9 h
[12]
  Activity: Active
[13]
  concentration at 1 h: 62 ng/g
[14]
  concentration at 1.5 h: 343 ng/g
[15]
  inhibition: inactive
[16]
  inhibition: inactive
[17]
  Time: 18.1 s
[18]
  inhibition: inactive
[19]
  inhibition: inactive
